Reference: ChEMBL document CHEMBL4229425, “Discovery and characterization of N-(1,3-dialkyl-1H-indazol-6-yl)-1H-pyrazolo[4,3-b]pyridin-3-amine scaffold as mGlu4 positive allosteric modulators that mitigate CYP1A2 induction liability” (Bioorg Med Chem Lett, 2018)

Legend:
[1] = target: T1, Metabotropic glutamate receptor 4 (Homo sapiens, UniProt Q14833); assay: Positive allosteric modulation of human mGluR4 expressed in CHO cells co-expressing Gqi5 assessed as increase in glutamate-induced calcium flux preincubated for 2.5 mins followed by glutamate addition by Fluo-4-AM dye based fluorescence assay; format: functional, cell-based
T1 sequence (Q14833 whole entry): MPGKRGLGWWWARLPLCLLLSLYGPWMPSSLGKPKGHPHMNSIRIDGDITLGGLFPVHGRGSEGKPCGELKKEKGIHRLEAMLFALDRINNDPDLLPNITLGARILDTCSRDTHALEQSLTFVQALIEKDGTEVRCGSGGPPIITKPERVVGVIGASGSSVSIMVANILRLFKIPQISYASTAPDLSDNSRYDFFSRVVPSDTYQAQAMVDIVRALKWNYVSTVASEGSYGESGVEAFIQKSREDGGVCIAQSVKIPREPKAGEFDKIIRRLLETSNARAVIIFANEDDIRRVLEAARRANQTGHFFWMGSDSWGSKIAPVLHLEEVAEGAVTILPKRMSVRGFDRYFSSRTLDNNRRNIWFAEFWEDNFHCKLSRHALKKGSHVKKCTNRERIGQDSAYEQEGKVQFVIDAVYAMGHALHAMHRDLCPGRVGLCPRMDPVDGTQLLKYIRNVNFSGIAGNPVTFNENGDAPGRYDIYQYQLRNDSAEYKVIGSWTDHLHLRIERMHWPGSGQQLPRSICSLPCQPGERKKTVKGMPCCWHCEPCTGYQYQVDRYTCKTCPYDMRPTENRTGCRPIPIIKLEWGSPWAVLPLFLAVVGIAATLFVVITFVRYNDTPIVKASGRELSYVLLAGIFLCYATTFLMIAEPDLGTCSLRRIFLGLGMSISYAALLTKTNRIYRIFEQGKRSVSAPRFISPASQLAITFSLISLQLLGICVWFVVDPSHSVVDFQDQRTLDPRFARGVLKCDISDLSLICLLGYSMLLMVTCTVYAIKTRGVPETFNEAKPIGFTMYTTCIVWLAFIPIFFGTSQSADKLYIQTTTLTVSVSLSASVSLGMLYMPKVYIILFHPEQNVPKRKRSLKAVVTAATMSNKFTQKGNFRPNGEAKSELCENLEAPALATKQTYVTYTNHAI

[2] = target: T1, Metabotropic glutamate receptor 4; assay: Positive allosteric modulation of human mGluR4 expressed in CHO cells co-expressing Gqi5 assessed as increase in glutamate-induced calcium flux at 30 uM preincubated for 2.5 mins followed by glutamate addition by Fluo-4-AM dye based fluorescence assay relative to PHCCC; format: functional, cell-based
[3] = target: T2, CYP1A2 (induction through the aryl hydrocarbon receptor, AhR) (Homo sapiens, UniProt P35869); assay: Activation of human AhR assessed as induction of CYP1A2 relative to control; format: ADME; conditions: read-out: FC
T2 sequence (P35869 whole entry): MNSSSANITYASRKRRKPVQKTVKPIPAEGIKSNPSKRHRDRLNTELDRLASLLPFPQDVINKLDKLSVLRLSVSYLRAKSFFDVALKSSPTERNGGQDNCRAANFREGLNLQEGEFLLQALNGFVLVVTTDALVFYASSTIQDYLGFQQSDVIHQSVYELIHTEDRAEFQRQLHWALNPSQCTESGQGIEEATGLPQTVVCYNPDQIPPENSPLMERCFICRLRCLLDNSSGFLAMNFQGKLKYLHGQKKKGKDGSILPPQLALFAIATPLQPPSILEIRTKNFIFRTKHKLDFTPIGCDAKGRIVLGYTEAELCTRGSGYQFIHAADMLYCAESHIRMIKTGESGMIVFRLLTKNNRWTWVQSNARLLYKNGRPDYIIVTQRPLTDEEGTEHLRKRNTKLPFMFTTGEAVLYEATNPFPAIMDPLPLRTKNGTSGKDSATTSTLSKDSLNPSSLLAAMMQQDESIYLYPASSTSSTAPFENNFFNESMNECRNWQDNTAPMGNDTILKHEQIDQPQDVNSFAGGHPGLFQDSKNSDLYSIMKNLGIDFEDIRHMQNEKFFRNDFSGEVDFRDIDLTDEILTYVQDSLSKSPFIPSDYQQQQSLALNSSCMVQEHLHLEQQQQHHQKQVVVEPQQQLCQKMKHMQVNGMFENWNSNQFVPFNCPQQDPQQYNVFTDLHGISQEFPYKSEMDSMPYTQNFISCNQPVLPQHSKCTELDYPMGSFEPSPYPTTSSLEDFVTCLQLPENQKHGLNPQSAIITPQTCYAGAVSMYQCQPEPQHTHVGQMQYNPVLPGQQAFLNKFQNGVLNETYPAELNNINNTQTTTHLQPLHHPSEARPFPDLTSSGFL

[4] = Fraction unbound in human plasma; format: ADME, cell-free
[5] = Clearance in rat liver microsomes; format: ADME, microsome
Cytochrome P450 1A2 = target: T3, Cytochrome P450 1A2 (Homo sapiens, UniProt P05177); assay: Inhibition of CYP1A2 in human liver microsomes; format: ADME
T3 sequence (P05177 whole entry): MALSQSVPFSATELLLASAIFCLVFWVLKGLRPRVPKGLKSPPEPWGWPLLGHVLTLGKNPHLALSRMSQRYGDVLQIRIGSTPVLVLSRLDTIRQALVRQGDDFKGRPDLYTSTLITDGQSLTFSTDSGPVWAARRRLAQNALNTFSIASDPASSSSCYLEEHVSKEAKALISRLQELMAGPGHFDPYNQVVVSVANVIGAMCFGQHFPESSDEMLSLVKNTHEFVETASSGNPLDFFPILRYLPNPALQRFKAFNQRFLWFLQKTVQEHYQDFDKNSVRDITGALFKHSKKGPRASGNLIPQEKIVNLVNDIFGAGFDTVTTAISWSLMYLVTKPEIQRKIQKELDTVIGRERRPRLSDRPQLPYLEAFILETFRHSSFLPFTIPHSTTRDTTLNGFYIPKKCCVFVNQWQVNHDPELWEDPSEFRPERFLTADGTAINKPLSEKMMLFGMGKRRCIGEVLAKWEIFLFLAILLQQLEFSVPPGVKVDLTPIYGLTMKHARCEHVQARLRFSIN

[6] = Fraction unbound in rat plasma; format: ADME, cell-free

Compound | EC50 ([1]; read-out: EC50) [nM] | Emax [2] [%] | further results
Cn1nc(C(=O)N2CCC(F)(F)CC2)c2ccc(Nc3n[nH]c4cccnc34)cc21 | 498 | 89.5 | 
CCn1nc(C2CC2)c2ccc(Nc3n[nH]c4cccnc34)cc21 | 1210 | 36.2 | Emax ([2]; tested as the 2H-labelled form): 97.4%
Cc1nn(C)c2cc(Nc3n[nH]c4cccnc34)ccc12 | 78.1 | 98 | fold induction [3]: 25; fraction unbound [4]: 0.058; CLhep predicted [5]: 18.6 mL/min/kg; IC50 (Cytochrome P450 1A2): < 100 nM; fraction unbound [6]: 0.089
Cc1nn(C2CCCC2)c2ccc(Nc3n[nH]c4cccnc34)cc12 | 265 | 93.8 | 
Cn1nc(C(=O)N2CC[C@H](F)C2)c2ccc(Nc3n[nH]c4cccnc34)cc21 | 764 | 55.5 | 
Cn1nc(C(=O)N2CCCC2)c2ccc(Nc3n[nH]c4cccnc34)cc21 | 827 | 41.6 | 
Cn1nc(OC2CCOCC2)c2ccc(Nc3n[nH]c4cccnc34)cc21 |  | 85.1 | 
Cn1nc(C2(C)CC2)c2ccc(Nc3n[nH]c4nccnc34)cc21 | 24.9 | 94.8 | 
Cc1nnc2ccc(Nc3n[nH]c4cccnc34)cn12 |  |  | EC50 ([1]; cho): Not Active
Cc1c2ccc(Nc3n[nH]c4cccnc34)cc2nn1CC1CCC1 |  |  | EC50 ([1]; cho): Not Active
Cc1cc(COc2nn(C)c3cc(Nc4n[nH]c5cccnc45)ccc23)on1 |  | 107 | 
c1cnc2c(Nc3ccc4c(C5CC5)n[nH]c4c3)n[nH]c2c1 | 452 | 76.5 | fold induction [3]: 13.5; fraction unbound [4]: 0.031; CLhep predicted [5]: 30.8 mL/min/kg; IC50 (Cytochrome P450 1A2): 280 nM; fraction unbound [6]: 0.014
Cc1c2ccc(Nc3n[nH]c4cccnc34)cc2nn1C1CCCC1 |  |  | EC50 ([1]; cho): Not Active
[2H]C([2H])([2H])Cn1nc(C2CC2)c2ccc(Nc3n[nH]c4cccnc34)cc21 | 36.2 |  | 
[2H]C([2H])([2H])Cn1nc(C2CC2)c2ccc(Nc3n[nH]c4ncccc34)cc21 | 160 |  | 
CCn1nc(Cl)c2cc(Nc3n[nH]c4cccnc34)ccc21 | 815 | 67 | 
Cn1nc(C(F)(F)F)c2ccc(Nc3n[nH]c4cccnc34)cc21 | 119 | 77.5 | 
Cn1nc(C2CC2)c2ncc(Nc3n[nH]c4cccnc34)cc21 | 468 | 75 | 
CCn1nc(C2CC2)c2ccc(Nc3n[nH]c4ncccc34)cc21 |  |  | Emax ([2]; tested as the 2H-labelled form): 75.7%
Cn1cnc2ccc(Nc3n[nH]c4cccnc34)cc21 | > 10000 | 54.6 | 
CC(C)COc1nn(C)c2cc(Nc3n[nH]c4cccnc34)ccc12 |  | 86.7 | 
Cn1nc(C(=O)NC2CCC2)c2ccc(Nc3n[nH]c4cccnc34)cc21 | 653 | 70.3 | 
Cn1nc(C(=O)N2CC[C@@H](F)C2)c2ccc(Nc3n[nH]c4cccnc34)cc21 | 907 | 41.9 | 

Compound | EC50 ([1]; read-out: EC50) [nM] | Emax [2] [%] | further results
Cn1nc(C2(C)CC2)c2ccc(Nc3n[nH]c4cccnc34)cc21 | 67.9 | 83.7 | 
Cc1nnc2cc(Nc3n[nH]c4cccnc34)ccn12 |  |  | EC50 ([1]; cho): Not Active
Fc1ccc(Nc2n[nH]c3cccnc23)cc1Cl |  |  | fraction unbound [4]: 0.017; CLhep predicted [5]: 12.1 mL/min/kg; IC50 (Cytochrome P450 1A2): < 100 nM; fraction unbound [6]: 0.028
FC(F)(F)Cn1nc(C2CC2)c2ccc(Nc3n[nH]c4cccnc34)cc21 |  |  | EC50 ([1]; cho): Not Active
CCn1nc(C)c2cc(Nc3n[nH]c4cccnc34)ccc21 | 95.1 | 78.3 | 
CC(C)Oc1nn(C)c2cc(Nc3n[nH]c4cccnc34)ccc12 |  | 70.9 | 
Cc1nn(CC2CCC2)c2ccc(Nc3n[nH]c4cccnc34)cc12 | 46.8 | 93.2 | 
CCc1nn(C)c2cc(Nc3n[nH]c4cccnc34)ccc12 | 37.9 | 94.5 | 
Cn1nc(OCC2CCCCO2)c2ccc(Nc3n[nH]c4cccnc34)cc21 (configuration not stated) |  | 100 | 
Cn1nc(C(=O)NC2CC(F)(F)C2)c2ccc(Nc3n[nH]c4cccnc34)cc21 | 116 | 52.2 | 
Cn1nc(C(=O)N2CCC(F)(F)C2)c2ccc(Nc3n[nH]c4cccnc34)cc21 | 289 | 57.8 | 
Cn1ccc2cc(Nc3n[nH]c4cccnc34)ccc21 | 3590 | 83.8 | 
CN1CCC(Oc2nn(C)c3cc(Nc4n[nH]c5cccnc45)ccc23)CC1 | 1880 | 88.3 | 
Cn1nnc2ccc(Nc3n[nH]c4cccnc34)cc21 | 1430 | 72.4 | 
Cn1nc(C2(C)CC2)c2ccc(Nc3n[nH]c4ncccc34)cc21 | 129 | 84 | 
Cn1ncc2cc(Nc3n[nH]c4cccnc34)ccc21 | 870 | 110 | fold induction [3]: 28; fraction unbound [4]: 0.118; CLhep predicted [5]: 40.1 mL/min/kg; IC50 (Cytochrome P450 1A2): 530 nM; fraction unbound [6]: 0.127
Cn1nc(CC(F)(F)F)c2ccc(Nc3n[nH]c4cccnc34)cc21 | 95.5 | 62.7 | 
Cn1nc(C2CC2)c2ccc(Nc3n[nH]c4ncccc34)cc21 | 43.2 | 94.8 | fold induction [3]: 2.6; fraction unbound [4]: 0.03; CLhep predicted [5]: 16.1 mL/min/kg; IC50 (Cytochrome P450 1A2): 2600 nM; fraction unbound [6]: 0.031
Cn1ncc2ccc(Nc3n[nH]c4cccnc34)cc21 | 257 | 105 | fold induction [3]: 154; fraction unbound [4]: 0.093; CLhep predicted [5]: 10.7 mL/min/kg; IC50 (Cytochrome P450 1A2): 110 nM; fraction unbound [6]: 0.061
Cn1nc(C(=O)NC2CC(F)C2)c2ccc(Nc3n[nH]c4cccnc34)cc21 (configuration not stated) | 794 | 74 | 
Cn1nc(C2CC2)c2ccc(Nc3n[nH]c4nccnc34)cc21 | 19.8 | 101 | fold induction [3]: 2.3; fraction unbound [4]: 0.03; CLhep predicted [5]: 22.4 mL/min/kg; IC50 (Cytochrome P450 1A2): 480 nM; fraction unbound [6]: 0.035
Cc1nn(C(C)C)c2cc(Nc3n[nH]c4cccnc34)ccc12 | 9890 | 62 | 
Cc1nn(C)c2ccc(Nc3n[nH]c4cccnc34)cc12 | 345 | 105 | 
